Measured values as given in patent US20250177351A1, “ISOINDOLINE COMPOSITIONS AND METHODS FOR TREATING NEURODEGENERATIVE DISEASE” (Cognition Therapeutics, Inc., priority 2022, published 2025).
Marks after values point to notes of the source that are not given here.

Tests used:
Type in all cases: in vivo, human
[1] = Phase 1 MAD study: cognitive testing in healthy elderly cohort; settings: 560 mg for 14 days (N = 7)
Experimental: The Alzheimer's Disease Assessment Scale-Cognition Subscale (ADAS-Cog 13) and a cognitive battery (including the category fluency test, controlled word association test, WMS-R digit span, digit symbol substitution test, and Rey Auditory Verbal Learning Test) were administered to subjects in the elderly cohort at baseline and on Day 14.

[2] = Phase 1 MAD study: CT1812 concentration in CSF; settings: humans, from CSF levels
Text: CT1812 was quantitated in CSF using a validated LC-MS/MS method.

[3] = Phase 1 single ascending dose (SAD)/food-effect study: plasma pharmacokinetics
Experimental: A Phase 1, two-part single and multiple ascending dose study was conducted in 7 and 4 cohorts of healthy human subjects respectively. […] In Part B, subjects were administered 280, 560, and 840 mg once daily for 14 days (8:2 A:P per cohort). An elderly cohort, age 65-75, was dosed at 560 mg once daily for 14 days (7:2 A:P). […] Cognitive testing was performed in the healthy elderly cohort at baseline and at Day 14 of treatment.
Part A was a single ascending dose cohort study in which healthy, young subjects (less than 65 years old) received one dose of study drug in the morning after an overnight fast. Cohort dosing started at 10 mg and increased to 30 mg, 90 mg, 180 mg, 450 mg, and 1120 mg in subsequent cohorts. Six drug-treated and two placebo-treated subjects were randomized in each cohort. A seventh cohort of six subjects each received a single 90 mg dose of drug 30 min. after a meal. Following completion of all safety assessments and blood draws for PK analyses, subjects were discharged on Day 3.
In Part A, blood draws for assessment of PK parameters occurred pre-dose and at 15, 30, 45, 60, and 90 minutes post dose as well as at 2, 3, 4, 8, 12, 24, 36, and 48 hours post dose. […] In Part B, blood samples for plasma PK analysis were taken on Day 1 at pre-dose and at 2 hours post-dose, on Day 3 at pre-dose and at 15, 30 and 45 minutes and 1, 2, 3, 4, 8, 12 and 24 hours post-dose, on Days 4, 6, 8 and 10 at pre-dose and at 1.5 hours post-dose and following the final dose on Day 14 at pre-dose and 15, 30 and 45 minutes and 1, 2, 4, 8, 12, 24, 36 and 48 hours post-dose.
This was assessed by analysis of variance (ANOVA) of log-transformed Cmax, AUC0-24, AUC0-48, and/or AUC0-inf, using a model with factors for treatment (fed status or age [young vs. elderly] status) and subject within sequence. Treatment mean differences and 90% confidence intervals of the log transformed PK parameters were back-transformed, to present the geometric least squares means ratios and 90% confidence limits.

In the case of `CC(C)(C)Oc1cc(CCC(C)(C)N2Cc3ccc(S(C)(=O)=O)cc3C2)ccc1O` [CT1812], the “COWAT (Trial 2), Mean (SD)” value ([1]; Day 14, Day 0: 9.6 (4.2)) is reported as 10.6 (5.1), the “COWAT (Trial 1), Mean (SD)” value ([1]; Day 14, Day 0: 11.3 (5.7)) is reported as 12.6 (4.5) and the “COWAT (Trial 3), Mean (SD)” value ([1]; Day 14, Day 0: 14.6 (5.7)) is reported as 15.1 (3.7). For the same molecule, the “RAVLT, Mean (SD)” value ([1]; Day 14, Day 0: 17.3 (3.9)) was 18.7 (3.1), the “WMS-R (Digit Span), Mean (SD)” value ([1]; Day 14, Day 0: 17.9 (3.3)) was 17.9 (3.3) and the “CFT, Mean (SD)” value ([1]; Day 14, Day 0: 18.4 (5.5)) was 19.7 (2.4). For the same molecule, the “DSST, Mean (SD)” value ([1]; Day 14, Day 0: 78.3 (11.0)) was 80 (9.6), the blood-brain barrier penetration [2] was “penetrates the blood-brain barrier” and the “exposure based on AUC, fed vs. fasted” value ([3]; 90 mg) was “no significant difference”. The t1/2 ([3]; SAD fasted 10 mg, Day 1, plasma, mean (n = 5)) was 12.0^‡ hr, the t1/2 ([3]; SAD fasted 450 mg (n = 6), plasma, mean) was 12.2 h and the “increase of Cmax and AUC with dose” value ([3]; SAD, 10 mg to 1120 mg) was “slightly greater than dose proportionally”. For the same molecule, the “AUC0-48h lower under fed vs fasted conditions (geometric least-squares mean)” value ([3]; single 90 mg oral dose) was roughly 20%, the “AUC0-inf lower under fed vs fasted conditions (geometric least-squares mean)” value ([3]; single 90 mg oral dose) was roughly 20% and the “Cmax lower under fed vs fasted conditions (geometric least-squares mean)” value ([3]; single 90 mg oral dose) was “approximately 40%”.
